Key:
Experiment in all cases: cells
BFTC-909 = type: functional, cell-based, Homo sapiens
Description: SANGER: Inhibition of human BFTC-909 cell growth in a cell viability assay.

D-392MG = type: functional, cell-based, Homo sapiens
UACC-62 = type: functional, cell-based, Homo sapiens;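 note: growth inhibition of human UACC-62 cells, read out by a cell viability assay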
Description: SANGER: Inhibition of human UACC-62 cell growth in a cell viability assay.

KALS-1 = type: functional, cell-based, Homo sapiens;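 note: growth inhibition of KALS-1 cells, determined with a cell viability assay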
Description: SANGER: Inhibition of human KALS-1 cell growth in a cell viability assay.

MG-63 = type: functional, cell-based, Homo sapiens;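 note: growth inhibition of human MG-63 cells, read out with a cell viability assay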
Description: SANGER: Inhibition of human MG-63 cell growth in a cell viability assay.

KYSE-270 = type: functional, cell-based, Homo sapiens;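 note: cell growth inhibition measured with a viability assay in the human KYSE-270 line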
Description: SANGER: Inhibition of human KYSE-270 cell growth in a cell viability assay.

NCI-H2170 = type: functional, cell-based, Homo sapiens;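 note: cell viability assay measuring growth inhibition of human NCI-H2170 cancer cells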
Description: SANGER: Inhibition of human NCI-H2170 cell growth in a cell viability assay.

SNU-5 = type: functional, cell-based, Homo sapiens;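 note: cell viability readout used to measure growth inhibition in human NCI-SNU-5 cells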
Description: SANGER: Inhibition of human NCI-SNU-5 cell growth in a cell viability assay.

SNB-75 = type: functional, cell-based, Homo sapiens;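 note: cell viability assay measuring growth inhibition of human SNB-75 cells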
Description: SANGER: Inhibition of human SNB75 cell growth in a cell viability assay.

NCI-H1623 = type: functional, cell-based, Homo sapiens;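 note: cell viability assay used as the read-out for growth inhibition of NCI-H1623 cells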
Description: SANGER: Inhibition of human NCI-H1623 cell growth in a cell viability assay.

ES7 = type: functional, cell-based, Homo sapiens;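 note: growth inhibition of cultured human ES7 cells, read out as cell viability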
Description: SANGER: Inhibition of human ES7 cell growth in a cell viability assay.

NCI-H2122 = type: functional, cell-based, Homo sapiens;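 note: growth inhibition of the cells, read out with a cell viability assay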
Description: SANGER: Inhibition of human NCI-H2122 cell growth in a cell viability assay.

SK-PN-DW = type: functional, cell-based, Homo sapiens;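 note: growth inhibition measured with a viability assay on these cells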
Description: SANGER: Inhibition of human SK-PN-DW cell growth in a cell viability assay.

NCI-H441 = type: functional, cell-based, Homo sapiens;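 note: growth inhibition of NCI-H441 cells, read out with a cell viability assay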
Description: SANGER: Inhibition of human NCI-H441 cell growth in a cell viability assay.

NB7 = type: functional, cell-based, Homo sapiens;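 note: growth inhibition of NB7 cells, read out with a cell viability assay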
Description: SANGER: Inhibition of human NB7 cell growth in a cell viability assay.

KG-1 = type: functional, cell-based, Homo sapiens;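 note: growth inhibition of KG-1 cells, read out by a cell viability assay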
Description: SANGER: Inhibition of human KG-1 cell growth in a cell viability assay.

LB771-HNC = type: functional, cell-based, Homo sapiens;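 note: growth inhibition of LB771-HNC human cells, read out with a cell viability assay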
Description: SANGER: Inhibition of human LB771-HNC cell growth in a cell viability assay.

SNU-423 = type: functional, cell-based, Homo sapiens
Description: SANGER: Inhibition of human SNU-423 cell growth in a cell viability assay.

CP50-MEL-B = type: functional, cell-based, Homo sapiens;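 note: growth inhibition of the human cell line, measured with a cell viability read-out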
Description: SANGER: Inhibition of human CP50-MEL-B cell growth in a cell viability assay.

BCPAP = type: functional, cell-based, Homo sapiens;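 note: growth inhibition of BCPAP cells, read out in a cell viability assay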
Description: SANGER: Inhibition of human BCPAP cell growth in a cell viability assay.

MC116 = type: functional, cell-based, Homo sapiens;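 note: growth inhibition of MC116 cells, read out with a cell viability assay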
Description: SANGER: Inhibition of human MC116 cell growth in a cell viability assay.

LB1047-RCC = type: functional, cell-based, Homo sapiens;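 note: inhibition of cell growth, determined with a cell viability assay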
Description: SANGER: Inhibition of human LB1047-RCC cell growth in a cell viability assay.

KINGS-1 = type: functional, cell-based, Homo sapiens;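 note: cell viability assay measuring suppression of KINGS-1 cell growth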
Description: SANGER: Inhibition of human KINGS-1 cell growth in a cell viability assay.

M14 = type: functional, cell-based, Homo sapiens;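 note: growth inhibition of M14 cells, read out with a cell viability assay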
Description: SANGER: Inhibition of human M14 cell growth in a cell viability assay.

SW1463 = type: functional, cell-based, Homo sapiens;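 note: growth inhibition of SW1463 cells, determined with a cell viability assay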
Description: SANGER: Inhibition of human SW1463 cell growth in a cell viability assay.

NCI-H358 = type: functional, cell-based, Homo sapiens;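 note: growth inhibition of NCI-H358 human cells, read out with a cell viability assay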
Description: SANGER: Inhibition of human NCI-H358 cell growth in a cell viability assay.

C8166 = type: functional, cell-based, Homo sapiens;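 note: growth inhibition of human C8166 cells measured by a cell viability assay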
Description: SANGER: Inhibition of human C8166 cell growth in a cell viability assay.

EW-13 = type: functional, cell-based, Homo sapiens;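 note: growth inhibition of EW-13 cells, read out with a cell viability assay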
Description: SANGER: Inhibition of human EW-13 cell growth in a cell viability assay.

A204 = type: functional, cell-based, Homo sapiens;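 note: growth inhibition of human A204 cells, read out with a cell viability assay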
Description: SANGER: Inhibition of human A204 cell growth in a cell viability assay.

HCE-4 = type: functional, cell-based, Homo sapiens;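 note: cell viability assay measuring inhibition of growth in the human HCE-4 cell line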
Description: SANGER: Inhibition of human HCE-4 cell growth in a cell viability assay.

L-363 = type: functional, cell-based, Homo sapiens
Description: SANGER: Inhibition of human L-363 cell growth in a cell viability assay.

SK-N-DZ = type: functional, cell-based, Homo sapiens;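 note: growth inhibition of the cancer cell line, read out through a viability assay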
Description: SANGER: Inhibition of human SK-N-DZ cell growth in a cell viability assay.

ACHN = type: functional, cell-based, Homo sapiens;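 note: cell viability read-out used to gauge how strongly growth of human ACHN cells is suppressed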
Description: SANGER: Inhibition of human ACHN cell growth in a cell viability assay.

HuP-T4 = type: functional, cell-based, Homo sapiens;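 note: cell viability assay measuring how much HuP-T4 cell growth is inhibited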
Description: SANGER: Inhibition of human HuP-T4 cell growth in a cell viability assay.

SK-HEP1 = type: functional, cell-based, Homo sapiens, SK-HEP-1;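 note: cell viability readout used to quantify reduction in proliferation of human SK-HEP-1 cells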
Description: SANGER: Inhibition of human SK-HEP-1 cell growth in a cell viability assay.

A549 = type: functional, cell-based, Homo sapiens;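 note: growth inhibition of A549 cells, read out with a cell viability assay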
Description: SANGER: Inhibition of human A549 cell growth in a cell viability assay.

RVH-421 = type: functional, cell-based, Homo sapiens
Description: SANGER: Inhibition of human RVH-421 cell growth in a cell viability assay.

SK-MEL-30 = type: functional, cell-based, Homo sapiens;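 note: growth inhibition of SK-MEL-30 cells, determined with a cell viability assay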
Description: SANGER: Inhibition of human SK-MEL-30 cell growth in a cell viability assay.

CAL-33 = type: functional, cell-based, Homo sapiens;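 note: growth inhibition of CAL-33 cells, read out with a cell viability assay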
Description: SANGER: Inhibition of human CAL-33 cell growth in a cell viability assay.

P12-Ichikawa = type: functional, cell-based, Homo sapiens
COLO-678 = type: functional, cell-based, Homo sapiens
Description: SANGER: Inhibition of human COLO-678 cell growth in a cell viability assay.

**Q.** What does the source list for CS(=O)(=O)c1ccc(C(=O)Nc2ccc(Cl)c(-c3ccccn3)c2)c(Cl)c1 [VISMODEGIB]?
**A.** IC50 (BFTC-909; Homo sapiens, BFTC-909): > 10 µM; IC50 (D-392MG; Homo sapiens, D-392MG): > 10 µM; IC50 (UACC-62; Homo sapiens, UACC-62): > 10 µM; IC50 (KALS-1; Homo sapiens, KALS-1): > 10 µM; IC50 (MG-63; Homo sapiens, MG-63): > 10 µM; IC50 (KYSE-270; Homo sapiens, KYSE-270): > 10 µM; IC50 (NCI-H2170; Homo sapiens, NCI-H2170): > 10 µM; IC50 (SNU-5; Homo sapiens, SNU-5): > 10 µM; IC50 (SNB-75; Homo sapiens, SNB-75): > 10 µM; IC50 (NCI-H1623; Homo sapiens, NCI-H1623): > 10 µM; IC50 (ES7; Homo sapiens, ES7): > 10 µM; IC50 (NCI-H2122; Homo sapiens, NCI-H2122): > 10 µM; IC50 (SK-PN-DW; Homo sapiens, SK-PN-DW): > 10 µM; IC50 (NCI-H441; Homo sapiens, NCI-H441): > 10 µM; IC50 (NB7; Homo sapiens, NB7): > 10 µM; IC50 (KG-1; Homo sapiens, KG-1): > 10 µM; IC50 (LB771-HNC; Homo sapiens, LB771-HNC): > 10 µM; IC50 (SNU-423; Homo sapiens, SNU-423): > 10 µM; IC50 (CP50-MEL-B; Homo sapiens, CP50-MEL-B): > 10 µM; IC50 (BCPAP; Homo sapiens, BCPAP): > 10 µM; IC50 (MC116; Homo sapiens, MC116): > 10 µM; IC50 (LB1047-RCC; Homo sapiens, LB1047-RCC): > 10 µM; IC50 (KINGS-1; Homo sapiens, KINGS-1): > 10 µM; IC50 (M14; Homo sapiens, M14): > 10 µM; IC50 (SW1463; Homo sapiens, SW1463): > 10 µM; IC50 (NCI-H358; Homo sapiens, NCI-H358): > 10 µM; IC50 (C8166; Homo sapiens, C8166): > 10 µM; IC50 (EW-13; Homo sapiens, EW-13): > 10 µM; IC50 (A204; Homo sapiens, A204): > 10 µM; IC50 (HCE-4; Homo sapiens, HCE-4): > 10 µM; IC50 (L-363; Homo sapiens, L-363): > 10 µM; IC50 (SK-N-DZ; Homo sapiens, SK-N-DZ): > 10 µM; IC50 (ACHN; Homo sapiens, ACHN): > 10 µM; IC50 (HuP-T4; Homo sapiens, HuP-T4): > 10 µM; IC50 (SK-HEP1; Homo sapiens, SK-HEP1): > 10 µM; IC50 (A549; Homo sapiens, A549): > 10 µM; IC50 (RVH-421; Homo sapiens, RVH-421): > 10 µM; IC50 (SK-MEL-30; Homo sapiens, SK-MEL-30): > 10 µM; IC50 (CAL-33; Homo sapiens, CAL-33): > 10 µM; IC50 (P12-Ichikawa; Homo sapiens, P12-Ichikawa): > 10 µM; IC50 (COLO-678; Homo sapiens, COLO-678): > 10 µM

**Q.** CISPLATIN was tested. Which IC50 (BFTC-909; bftc-909) did it give?
**A.** Its IC50 is 14.9 µM.

**Q.** And the IC50 (D-392MG; d-392mg)?
**A.** Its IC50 is 11.9 µM.

**Q.** What about the IC50 (UACC-62; uacc-62) of the same molecule?
**A.** Its IC50 is 12.4 µM.

**Q.** What about the IC50 (KALS-1; kals-1) of the same molecule?
**A.** Its IC50 is 71.1 µM.

**Q.** And the IC50 (MG-63; mg-63)?
**A.** The IC50 was 100 µM.

**Q.** What about the IC50 (KYSE-270; kyse-270) of the same molecule?
**A.** The IC50 was 9.08 µM.

**Q.** And the IC50 (NCI-H2170; nci-h2170)?
**A.** The IC50 was 23 µM.

**Q.** What about the IC50 (SNU-5; snu-5) of the same molecule?
**A.** The IC50 was 141 µM.

**Q.** What about the IC50 (SNB-75; snb-75) of the same molecule?
**A.** The IC50 was 48 µM.

**Q.** And the IC50 (NCI-H1623; nci-h1623)?
**A.** The IC50 was 46.9 µM.

**Q.** And the IC50 (ES7; es7)?
**A.** The IC50 was 1.87 µM.

**Q.** And the IC50 (NCI-H2122; nci-h2122)?
**A.** Its IC50 is 15.3 µM.

**Q.** What about the IC50 (SK-PN-DW; sk-pn-dw) of the same molecule?
**A.** Its IC50 is 35 µM.

**Q.** What about the IC50 (NCI-H441; nci-h441) of the same molecule?
**A.** The IC50 was 199 µM.

**Q.** And the IC50 (NB7; nb7)?
**A.** The IC50 was 15.4 µM.

**Q.** What about the IC50 (KG-1; kg-1) of the same molecule?
**A.** Its IC50 is 3.63 µM.

**Q.** What about the IC50 (LB771-HNC; lb771-hnc) of the same molecule?
**A.** The IC50 was 89.8 µM.

**Q.** What about the IC50 (SNU-423; snu-423) of the same molecule?
**A.** Its IC50 is 111 µM.

**Q.** What about the IC50 (CP50-MEL-B; cp50-mel-b) of the same molecule?
**A.** The IC50 was 217 µM.

**Q.** What about the IC50 (BCPAP; bcpap) of the same molecule?
**A.** Its IC50 is 228 µM.

**Q.** What about the IC50 (MC116; mc116) of the same molecule?
**A.** The IC50 was 86.9 µM.

**Q.** What about the IC50 (LB1047-RCC; lb1047-rcc) of the same molecule?
**A.** The IC50 was 5.89 µM.

**Q.** What about the IC50 (KINGS-1; kings-1) of the same molecule?
**A.** Its IC50 is 42.8 µM.

**Q.** What about the IC50 (M14; m14) of the same molecule?
**A.** Its IC50 is 2.79 µM.

**Q.** What about the IC50 (SW1463; sw1463) of the same molecule?
**A.** The IC50 was 189 µM.

**Q.** What about the IC50 (NCI-H358; nci-h358) of the same molecule?
**A.** The IC50 was 195 µM.

**Q.** What about the IC50 (C8166; c8166) of the same molecule?
**A.** The IC50 was 208 µM.

**Q.** What about the IC50 (EW-13; ew-13) of the same molecule?
**A.** Its IC50 is 4.17 µM.

**Q.** What about the IC50 (A204; a204) of the same molecule?
**A.** The IC50 was 64.4 µM.

**Q.** What about the IC50 (HCE-4; hce-4) of the same molecule?
**A.** Its IC50 is 9.36 µM.

**Q.** And the IC50 (L-363; l-363)?
**A.** Its IC50 is 4.01 µM.

**Q.** What about the IC50 (SK-N-DZ; sk-n-dz) of the same molecule?
**A.** The IC50 was 26.8 µM.

**Q.** And the IC50 (ACHN; achn)?
**A.** The IC50 was 8.05 µM.

**Q.** What about the IC50 (HuP-T4; hup-t4) of the same molecule?
**A.** The IC50 was 37.4 µM.

**Q.** What about the IC50 (SK-HEP1; sk-hep-1) of the same molecule?
**A.** Its IC50 is 28.9 µM.

**Q.** What about the IC50 (A549; a549) of the same molecule?
**A.** The IC50 was 18.8 µM.

**Q.** And the IC50 (RVH-421; rvh-421)?
**A.** The IC50 was 40.6 µM.

**Q.** What about the IC50 (SK-MEL-30; sk-mel-30) of the same molecule?
**A.** Its IC50 is 480 µM.

**Q.** And the IC50 (CAL-33; cal-33)?
**A.** The IC50 was 41.3 µM.

**Q.** What about the IC50 (P12-Ichikawa; p12-ichikawa) of the same molecule?
**A.** Its IC50 is 2.04 µM.

**Q.** What about the IC50 (COLO-678; colo-678) of the same molecule?
**A.** The IC50 was 621 µM.
